Experimental data: US20100292306A1, “Compositions And Methods For The Treatment Of Muscular Dystrophy” (priority 2005, published 2010)
“Also recorded” adds a separate entry of the source.

How the values were obtained:
[1] = test system: mdx triangularis sterni (TS) muscle; assay: Histological cross sections of mdx TS muscle (fiber number, diameter, density, myonuclei, centronucleation); type: in vivo, mdx mice; details: 50 mg/kg daily 30 days from 30 days of age, read at 60 days; p<0.001
[2] = test system: nuclear NF-κB activation; details: long term treatment; Messina et al. (2006); cited from earlier work
[3] = test system: mdx gastrocnemius muscle; assay: Gastrocnemius twitch tension at optimal length
[4] = Observation of viability, side effects and body weight during treatment; details: overall sample of PDTC-treated mice

S=C(S)N1CCCC1 [PDTC, pyrrolidine dithiocarbamate]
percent centronucleation [1]: reduced; also recorded: significantly reduces
nuclear NF-κB activation in mdx quadriceps [2]: effectively reduced
improvement in average twitch tension relative to vehicle-injected ([3]; mature mdx (about 15 months), 50 mg/kg daily, average 72 days): 52%
twitch tension development ([3]; mature mdx mice, average age 15 months at sacrifice): improves
improvement in twitch tension/gm relative to vehicle-injected ([3]; mature mdx, just failed to reach statistical significance (p>=0.05)): 45%
increase in twitch tension vs vehicle-treated ([3]; young adult (2 month old) mdx): 13%
increase in twitch tension/mg muscle weight vs vehicle-treated ([3]; young adult (2 month old) mdx): 11%
twitch tension development ([3]; young adult mdx mice): improves
effect on viability [4]: no obvious effect
